# Patent US20240374626A1, “METHODS OF ENHANCING MILK PRODUCTION IN LACTATING MAMMALIAN SUBJECTS” (priority 2023, published 2024)
# Key:
# Type in all cases: in vivo, mouse
# γH2AX = assay: Contralateral intraductal injection: γH2AX IHC in CK8+ luminal cells of MG; details: Hydroxyurea IDI at PD8.5 and PD12.5 vs contralateral PBS, at PD13.5
# Description: (§1) Nulliparous analysis was performed using adult (10-12-week-old) female mice. For timed pregnancies and lactation analysis, CD-1 pregnant adult females were obtained from Charles Rivers. Embryos were examined at the time of mammary gland harvesting to confirm pregnancy state. […] Plugged mice were considered to be PD0.5 on the day of the observed plug. All females used in this study were age matched.
# (§2) Mice were anesthetized with isoflurane (VetOne, 501017) Prior to intraductal injections, hair was removed from around the nipples using Nair hair remover. Injections into the duct of the nipple were performed with 33 G needles (Hamilton, 7803-05) and a volume of 40 μl per gland. Right inguinal, abdominal and thoracic glands were injected with doxorubicin (1.5 μg per gland, Cayman Chemical, 15007), nucleosides (40 μl per gland, Millipore-Sigma, ES-008-D) or Mk-1775 (50 μg per gland, Cayman Chemical, 21266), and left glands were injected with PBS or DMSO (Thermo Scientific, BP231) diluted in PBS.
# (§3) Mammary gland tissue was fixed in 10% neutral buffered formalin (EMD Millipore, MR0458682) at 4° C. overnight. Fixation was quenched using 0.2% glycine (Fisher Scientific, BP381) in PBS, for 1 h at room temperature. […] Integrated density of nuclear γH2AX and pATR was quantified using ImageJ.
# pATR = assay: Contralateral intraductal injection: pATR IHC in CK8+ luminal cells of MG; details: Hydroxyurea IDI at PD8.5 and PD12.5 vs contralateral PBS, at PD13.5
# Description: as §1, §2, §3
# Csn2 = assay: Contralateral intraductal injection: Csn2 expression in MGs by RT-qPCR; details: Hydroxyurea IDI at PD8.5 and PD12.5 vs contralateral PBS, LD2 MGs
# Description: as §1, §2
# For RNA isolation from FACS purified populations, mammary gland cell suspensions were blocked using Mouse BD Fc Block™ (BD Biosciences) for 10 min. Cells were subsequently resuspended on 1×PBS at a density of 10^7 cells/ml and stained with the following antibodies for 30 min on ice: anti-CD24 PE (Stem Cell Technologies, 60099PE.1), anti-CD29 PE-Cy7 (BioLegend, 102222), anti-CD45-APC (BioLegend,105826), Ter119-APC (BD Biosciences, 561033), CD31-ACP (BD Biosciences, 551262). Propidium iodide at a final concentration of 0.5 μg/ml was used for the discrimination of dead cells. Stromal, basal and luminal mammary populations were sorted using a BD FACS Aria II Cell Sorter. […] Total RNA quality was analyzed by agarose gel electrophoresis and quantified using an ND-1000 spectrophotometer (NanoDrop). cDNA was prepared from 500-1000 ng of total RNA using iScript cDNA synthesis kit (Bio-Rad, 1708841). Quantitative RT-qPCR was performed in triplicates using SsoAdvanced Universal SYBR Green Supermix, (Bio-Rad, 1725272). […]
# MG alveoli = assay: Contralateral intraductal injection: milk staining (IHC) integrated density per alveolus; details: Hydroxyurea IDI at PD8.5 and PD12.5 vs contralateral PBS, LD2 MG section
# Description: as §1
# (§4) Mice were anesthetized with isoflurane (VetOne, 501017) Prior to intraductal injections, hair was removed from around the nipples using Nair hair remover. Injections into the duct of the nipple were performed with 33 G needles (Hamilton, 7803-05) and a volume of 40 μl per gland. […]
# Mammary gland tissue was fixed in 10% neutral buffered formalin (EMD Millipore, MR0458682) at 4° C. overnight. […] Incubation with secondary antibodies [(donkey anti-Rat 647 (Thermo-Invitrogen; A48272) and donkey anti-Rabbit 488 (Thermo-Invitrogen; A32790)] was performed for 2 h at room temperature. Sections were washed with 0.3% triton in PBS for 30 min (×3) at room temperature and mounted using flouromount-G (Southern Biotech, 0100-01). Image acquisition was performed using Zeiss Axio Imager Microscope. Macros were generated to quantify lumen milk integrated density per alveolus using Image J.
# Wee1 = assay: Contralateral intraductal injection: Wee1 expression in whole MG tissue by RT-qPCR; details: IDI of hydroxyurea into pregnant MG vs contralateral PBS
# Description: as §1, §4
# For RNA isolation from FACS purified populations, mammary gland cell suspensions were blocked using Mouse BD Fc Block™ (BD Biosciences) for 10 min. […] Total RNA quality was analyzed by agarose gel electrophoresis and quantified using an ND-1000 spectrophotometer (NanoDrop). cDNA was prepared from 500-1000 ng of total RNA using iScript cDNA synthesis kit (Bio-Rad, 1708841). Quantitative RT-qPCR was performed in triplicates using SsoAdvanced Universal SYBR Green Supermix, (Bio-Rad, 1725272). […]
# CK8+ luminal cells = assay: Contralateral intraductal injection: FACS DNA content analysis of CK8+ luminal cells; details: Hydroxyurea IDI at PD8.5 and PD12.5 vs contralateral PBS, by LD5
structure (smiles),measurement,setting,value
NC(=O)NO [Hydroxyurea],γH2AX in CK8+ population,γH2AX,increased
same,pATR in CK8+ population,pATR,increased
same,"Csn2 expression, RT-qPCR",Csn2,increase
same,increase in milk (average integrated density of milk staining among alveoli),MG alveoli,~15%
same,"Wee1 expression in whole MG tissue, RT-qPCR",Wee1,upregulated
same,decrease in 2C CK8+ population (in the overall population),CK8+ luminal cells,5.5%
same,increase in 4C CK8+ population (in the overall population),CK8+ luminal cells,2%
same,increase in >4C CK8+ population (in the overall population),CK8+ luminal cells,48%
